# Values quoted from earlier work, collected in paper PMC6476928 (Frontiers in Pharmacology, 2019).
# pIC50: −log10 of the molar value.
# Key:
# [1] = tested on: kv4.1; conditions: X. laevis oocytes; cited from earlier work
# From the text: Supplement Data_Sheet_1.docx, table 1: Supplementary Table 1.Activity of spider toxins on Kv2 and Kv4 channel subtypes Activities of spider toxins against different subtypes of Kv2 and Kv4 potassium channels are reported as IC50 (nanomolar) or as percentage of current inhibition at a single dose (nanomolar). Affinity (IC50) measurements | column: kv4.1
# [2] = target: T1, Kv4.2 (Homo sapiens, UniProt Q9NZV8); conditions: X. laevis oocytes, cited from earlier work
# T1 sequence (Q9NZV8 1-630): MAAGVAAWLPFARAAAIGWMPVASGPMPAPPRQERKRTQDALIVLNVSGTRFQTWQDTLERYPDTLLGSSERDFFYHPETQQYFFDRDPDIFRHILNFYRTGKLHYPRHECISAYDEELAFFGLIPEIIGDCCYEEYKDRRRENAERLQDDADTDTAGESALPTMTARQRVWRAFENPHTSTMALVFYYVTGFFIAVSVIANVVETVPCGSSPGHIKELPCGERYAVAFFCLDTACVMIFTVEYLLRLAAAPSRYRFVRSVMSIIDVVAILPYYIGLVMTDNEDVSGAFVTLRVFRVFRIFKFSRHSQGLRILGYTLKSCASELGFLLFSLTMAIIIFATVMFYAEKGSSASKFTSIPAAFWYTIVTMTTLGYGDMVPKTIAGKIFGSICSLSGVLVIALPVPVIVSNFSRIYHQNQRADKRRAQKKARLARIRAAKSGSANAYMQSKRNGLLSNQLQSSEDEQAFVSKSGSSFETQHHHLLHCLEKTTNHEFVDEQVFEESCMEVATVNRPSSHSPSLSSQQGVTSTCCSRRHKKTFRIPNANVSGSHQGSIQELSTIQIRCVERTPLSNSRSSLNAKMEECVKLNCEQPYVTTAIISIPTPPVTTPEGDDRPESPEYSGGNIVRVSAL
# T1 sequence (Q9NS61 1-270 partner): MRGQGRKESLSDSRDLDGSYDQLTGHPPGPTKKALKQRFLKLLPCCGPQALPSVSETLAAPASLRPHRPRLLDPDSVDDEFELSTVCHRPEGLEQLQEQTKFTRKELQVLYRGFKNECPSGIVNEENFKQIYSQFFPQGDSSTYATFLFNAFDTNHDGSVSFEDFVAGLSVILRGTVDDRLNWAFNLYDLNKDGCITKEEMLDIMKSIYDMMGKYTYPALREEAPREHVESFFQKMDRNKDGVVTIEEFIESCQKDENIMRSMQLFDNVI
# From the text: (§1) Supplement Data_Sheet_1.docx, table 1: Supplementary Table 1.Activity of spider toxins on Kv2 and Kv4 channel subtypes Activities of spider toxins against different subtypes of Kv2 and Kv4 potassium channels are reported as IC50 (nanomolar) or as percentage of current inhibition at a single dose (nanomolar). Affinity (IC50) measurements | column: kv4.2 || Animal toxins target ion channels, and are thus valuable resources with potential therapeutic applications. The Kv4 subfamily from scorpion ([Maffie et al., 2013]; [Xie et al., 2014]) and spider venom ([Escoubas et al., 2002]; [Ebbinghaus et al., 2004]; [Yuan et al., 2007], [2012]; [DeSimone et al., 2009]) has a rich toxin pharmacology. HaTx, originally isolated from venom of the Chilean rose tarantula (Grammostola spatulata), inhibits Kv4.2 channels effectively, with similar affinity for Kv2.1 ([Swartz and MacKinnon, 1995]; [Swartz, 2007]). Other Kv4 channel inhibitors, Stromatoxin (ScTx1) fr ...
# [3] = tested on: kv2.1; conditions: X. laevis oocytes, Hill relation nH = 1; cited from earlier work
# From the text: as §1, with “kv2.1” for “kv4.2”
Substance,activity on kv4.1 [1],pIC50 ([2]; Hill relation nH = 1),pIC50 [3],"inhibition ([2]; 500nM, read-out: percentage of current inhibition kv4.2) [%]"
"Stromatoxin [ScTx1, reference compound]",No O,8.92,,
"hanatoxin [HaTx1, reference compound]",,,7.38,70
